Test [1] addresses T1, NET (Mus musculus, UniProt O55192).
T1 construct: The pellets were collected as synaptosomes; from tissue; host or cells: mouse (C57/B16) brain cortex synaptosomes
Description: NE transport assay in cortical synaptosomes. It counts as biochemical. The protocol:
Cell culture, transfection of cDNA or siRNA, generation of stable cell lines, preparation of cortical synaptosomes. CHO cells were maintained in DMEM/10% fetal bovine serum (FBS), 2 mM L-glutamine (L-Glu), 100 IU/ml penicillin, 100 μg/ml streptomycin (pen/strep). […]. The stable clones were selected using hygromycin B ([…], Invitrogen) and maintained in Ham's F12/10% FBS/L-Glu/pen/strep supplemented with Zeocin […] (Invitrogen). CAD-NET cells were generated by stably transfecting HA-NET in pcDNA3 into CAD cells and maintained in DMEM/F12/8% FBS/L-Glu/pen/strep/200 μg/ml of G418 (Mediatech). TransIT-LT1 transfection reagent (Mirus) was used for all transfections. All cells were plated on poly-D-lysine coated plates and incubated for 48 hrs for cDNA transfection and for 48 to 72 hrs for siRNA transfection prior to assays. For synaptosomal preparations, brain cortex was dissected from mice (C57/B16, Harlan) and homogenized in 10 mM HEPES, 0.32 M Sucrose, pH 7.4 using a Teflon pestle/homogenizer. Homogenates were centrifuged at 1,000 g, 5 min at 4° C., and then the supernatant were re-centrifuged at 16,000 g, 20 min at 4° C. The pellets were collected as synaptosomes.
Assay buffers, transport assays, Ca^2+ imaging. NE transport assays on synaptosomes (50-100 μg/assay reaction) or cells were described previously (Sung et al., 2003). Uptake assay was carried out in KRH/Ca^2+ (mM: 120 NaCl, 4.7 KCl, 1.2 KH2PO4, 10 HEPES, 1.2 MgSO4, 2.2 CaCl2, pH 7.4,) with 0.1 mM pargylnine, ascorbic acid, tropolone, and 1.8 mg/ml glucose, otherwise mentioned. KRH/EGTA is KRH with 0.2 mM EGTA and without CaCl2. When KRH/EGTA was used, KRH/Ca^2+ for the parallel experiment contained 0.2 mM EGTA as well. Uptake assays were initiated by addition of [^3H]-NE (1-[7,8-^3H] noradrenaline, Amersham Pharmacia) at 50 nM final concentration. For kinetics assays, 50, 100, 200 nM of [^3H]-NE, 400, 600, 800, 1,000, 1,200, 1,500 nM of 20% [^3H]-NE and 80% of unlabeled NE (Sigma) were used. Nonspecific uptake was defined using 1-10 μM desipramine. All assays were carried out at 37° C. for 10 min in triplicates. Ca^2+ imaging was performed as described previously (Apparsundaram et al., 2001). CHO cells were pre-loaded with […] fura-2/acetoxymethyl ester (fura-2/AM, Molecular Probe) and superfused with KRH/EGTA and 1 μM thapsigargin for 10 min. The medium was replaced with KRH/Ca^2+ or KRH/EGTA before measurement of intracellular Ca^2+. All experiments derive from at least 3 independent data and mean values were evaluated using a two-tailed Student's t-test or a one-way ANOVA, followed by Tukey's test, with p<0.05 considered significant (*). Data were analyzed using GraphPad Prism 4.
Protocols for restoration and depletion of Ca^2+ For uptake assay, synaptosomes were pre-incubated with drugs in KRH/Ca^2+. For increase of Ca^2+, synaptosomes were re-suspended in KRH/EGTA, transferred to fresh KRH/EGTA (EGTA to EGTA) or KRH/Ca^2+ (EGTA to Ca^2+), and incubated at 37° C. for 5 min prior to the addition of radiolabeled NE. NE uptake activity of synaptosomes in KRH/Ca^2+ was compared to the activity of synaptosomes in KRH/EGTA. For reduction of Ca^2+, synaptosomes were first resuspended in KRH/Ca^2+, divided into 2 aliquots, replaced with fresh KRH/Ca^2+ (Ca^2+ to Ca^2+) or KRH/EGTA (Ca^2+ to EGTA), and incubated at 37° C. for 5 min prior to the addition of radiolabeled NE. NE uptake activity of synaptosomes in KRH/EGTA was compared to the activity of synaptosomes in KRH/Ca^2+. Control cells were treated the same way except use of complete media with vehicle. Restoration of Ca^2+ for surface biotinylation was carried out by incubating cells in KRH/EGTA with 0.1-1 μM thapsigargin for 10 min at 37° C. to deplete Ca^2+. Cells were washed once with KRH/EGTA, replaced with KRH/EGTA or KRH/Ca^2+, and incubated for 1 min at RT to 5 min at 37° C. prior to biotinylation. […]

The subject of test [2] is human NET. The experiment in a line: Surface biotinylation of HA-NET in transiently transfected CHO cells. It counts as cell-based. The settings on record: for Change of transporter surface density in response to Ca^2+ manipulations (addition or depletion): HA-tagged NET mutants in CHO cells.
Test [3] relates to NET. The experiment in a line: Whole cell patch clamp recording of NET currents in SCG neurons. It counts as cell-based, rat. The settings on record: 200 μM CdCl2, 5 μM KN93 15 min, 2 μM STO609 20 min. The protocol:
Whole Cell Patch Clamp Recording of NET currents. Patch clamp experiments were performed using an amplifier Axopatch 200B with a low-pass filter set at 1 kHz. Quartz patch pipettes with 5-7 MΩ resistance were pulled by a programmable puller (model P-2000, Sutter Instruments Novato, Calif.) and filled with the internal solution containing (in mM): 120 KCl, 2 MgCl2, 10 HEPES, 2 MgATP, 30 dextrose and adjusted to pH 7.35. SCG neurons were washed twice with a control solution containing mMs 130 NaCl, 5 CaCl2, 0.5 MgCl2, 1.3 KCl, 10 HEPES, 34 dextrose adjusted to pH 7.35 before experiments. NET-mediated current was defined as the current recorded in control condition minus the current recorded in presence of 5 μM desipramine. Neurons were clamp at −50 mV and the NET-mediated current was recorded by stepping the membrane voltage to −120 mV for 500 ms before and after a 2 sec depolarizing step at −10 mV. NET-mediated current was studied in the control condition, in presence of 200 μM CdCl2, after 15 min preincubation with 5 μM KN93 and after 20 min preincubation with 2 μM STO609.

Test [4] deals with NET. Description: NE transport assay in CAD-NET cells. It is filed as cell-based, human. To be noted: KRH/Ca^2+.
Description: Uptake assay was carried out in KRH/Ca^2+ (mM: 120 NaCl, 4.7 KCl, 1.2 KH2PO4, 10 HEPES, 1.2 MgSO4, 2.2 CaCl2, pH 7.4,) with 0.1 mM pargylnine, ascorbic acid, tropolone, and 1.8 mg/ml glucose, otherwise mentioned. KRH/EGTA is KRH with 0.2 mM EGTA and without CaCl2. When KRH/EGTA was used, KRH/Ca^2+ for the parallel experiment contained 0.2 mM EGTA as well. […] Nonspecific uptake was defined using 1-10 μM desipramine. All assays were carried out at 37° C. for 10 min in triplicates. […] All experiments derive from at least 3 independent data and mean values were evaluated using a two-tailed Student's t-test or a one-way ANOVA, followed by Tukey's test, with p<0.05 considered significant (*).
The test system of test [5] is human NET. Description: NE transport assay in transiently transfected CHO cells. It counts as cell-based.
Target sequence in this assay (P23975 48-617 limits assumed): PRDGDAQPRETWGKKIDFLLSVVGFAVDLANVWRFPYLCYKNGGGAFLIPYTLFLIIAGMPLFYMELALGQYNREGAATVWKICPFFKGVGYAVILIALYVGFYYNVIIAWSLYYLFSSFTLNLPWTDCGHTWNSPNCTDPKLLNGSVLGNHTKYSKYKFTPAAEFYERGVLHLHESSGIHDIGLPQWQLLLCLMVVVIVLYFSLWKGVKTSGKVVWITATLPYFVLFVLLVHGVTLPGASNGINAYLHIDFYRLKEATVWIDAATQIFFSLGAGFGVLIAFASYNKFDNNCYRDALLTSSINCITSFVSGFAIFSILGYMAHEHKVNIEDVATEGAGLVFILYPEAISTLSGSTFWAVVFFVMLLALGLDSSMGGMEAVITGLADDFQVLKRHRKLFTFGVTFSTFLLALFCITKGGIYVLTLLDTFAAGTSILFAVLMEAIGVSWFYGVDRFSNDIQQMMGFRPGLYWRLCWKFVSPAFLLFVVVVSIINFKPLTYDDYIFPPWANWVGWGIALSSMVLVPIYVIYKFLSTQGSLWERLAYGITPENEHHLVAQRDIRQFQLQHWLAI
Test [6] concerns human NET. The experiment in a line: [32P] metabolic labeling and immunoprecipitation of NET in stable CHO cells. It counts as cell-based. To be noted: KRH/EGTA to KRH/Ca^2+ for 5 min. The procedure:
Cell culture, transfection of cDNA or siRNA, generation of stable cell lines, preparation of cortical synaptosomes. CHO cells were maintained in DMEM/10% fetal bovine serum (FBS), 2 mM L-glutamine (L-Glu), 100 IU/ml penicillin, 100 μg/ml streptomycin (pen/strep). CHO-NET or CHO-NET T30A cells were generated by stably transfecting HA-NET or HA-NET T30A in pcDNA5/FRT (Invitrogen) into CHO-Flip-In cells (Invitrogen). The stable clones were selected using hygromycin B ([…], Invitrogen) and maintained in Ham's F12/10% FBS/L-Glu/pen/strep supplemented with Zeocin […] (Invitrogen). CAD-NET cells were generated by stably transfecting HA-NET in pcDNA3 into CAD cells and maintained in DMEM/F12/8% FBS/L-Glu/pen/strep/200 μg/ml of G418 (Mediatech). TransIT-LT1 transfection reagent (Mirus) was used for all transfections. All cells were plated on poly-D-lysine coated plates and incubated for 48 hrs for cDNA transfection and for 48 to 72 hrs for siRNA transfection prior to assays. […]
Biochemical analysis and phosphorylation. […] Phosphorylated bands were captured via Phosphoimager (Typhoon 9400, Molecular Dynamics/GE Healthcare Life Sciences) and analyzed using ImageQuant 5.2 (Molecular Dynamics). […] Exposed films of immunoblots were scanned using an Agfa Duoscan T1200 and the captured images processed in Adobe® Photoshop® and quantitated using NIH image.

T1 sequence (O55192 whole entry): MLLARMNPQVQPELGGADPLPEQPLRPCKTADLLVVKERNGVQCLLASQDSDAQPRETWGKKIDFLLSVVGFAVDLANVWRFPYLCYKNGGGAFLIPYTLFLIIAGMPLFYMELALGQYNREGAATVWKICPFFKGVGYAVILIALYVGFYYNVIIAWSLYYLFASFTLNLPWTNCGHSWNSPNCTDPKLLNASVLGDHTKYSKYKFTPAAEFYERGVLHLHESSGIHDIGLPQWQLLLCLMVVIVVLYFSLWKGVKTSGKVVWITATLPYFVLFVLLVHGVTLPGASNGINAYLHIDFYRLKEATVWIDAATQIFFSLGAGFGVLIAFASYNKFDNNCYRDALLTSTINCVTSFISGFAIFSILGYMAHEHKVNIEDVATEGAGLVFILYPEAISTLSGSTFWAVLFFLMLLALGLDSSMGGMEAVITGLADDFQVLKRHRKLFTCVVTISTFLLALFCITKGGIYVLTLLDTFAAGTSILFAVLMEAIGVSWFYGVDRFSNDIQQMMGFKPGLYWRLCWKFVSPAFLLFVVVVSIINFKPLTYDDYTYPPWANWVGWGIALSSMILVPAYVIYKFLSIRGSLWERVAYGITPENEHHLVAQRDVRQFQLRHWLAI

On to `NC[C@H](O)c1ccc(O)c(O)c1` [NE, norepinephrine], for which, at NET [1] (KRH/EGTA), the “NE transport Vmax” value is on record as 0.129+/−0.0129 pmol/mg protein/min.
Regarding bisindolylmaleimide I [BIM], the “NE transport in KRH/Ca^2+ after drug treatment” value on NET [1] (0.1-1 μM BIM, 5 μM KN93 or 10 μM W7, 15 min at 37° C.) is on record as “inhibited NE transport”. Moreover, the “Effect on reduction in NET activity on switch from KRH/Ca^2+ to KRH/EGTA” value at NET [1] (pre-incubation with drug) is listed as “failed to attenuate the loss of NET activity”. Further, the “Effect on elevation in NET activity triggered by addition of Ca^2+” value at NET [1] (pre-incubation with drug, KRH/EGTA to KRH/Ca^2+) is on record as “no ability to attenuate Ca^2+-stimulated NET activity”.
For “NET T30E: human NET mutant designed to mimic constitutive phosphorylation at T30”, the “Change of transporter surface density in response to Ca^2+ manipulations (addition or depletion)” value in the test with human NET [2] was “failed to change”.
In the case of CdCl2, the “Effect on increase in NET current triggered by prior depolarization” value in the test with NET [3] was “prevented the increase in NET current”.
For `O=C(O)c1ccc2c3c1cccc3c(=O)n1c3ccccc3nc21` [STO-609], the “Effect on Ca^2+-depletion elicited reduction of NET surface density” value with human NET [2] (CHO cells, 5 μM KN93 30 min or 5 μM STO-609 1 hour, Ca^2+ depletion) was “prevented a loss of NET from the surface”. In addition, in the test with human NET [2] (CHO cells, 5 μM KN93 30 min or 5 μM STO-609 1 hour, KRH/EGTA to KRH/Ca^2+), the “Effect on Ca^2+-stimulated elevation of NET surface density” value is on record as “completely blocked the increase in surface NET protein”. The “Basal NE transport” value in the test on NET [4] is listed as “did not influence basal NE transport”. Further, the “Effect on increase in NET current triggered by prior depolarization” value with NET [3] was “prevented the stimulation-elicited increase in NET currents”; in the test on NET [3] (listed as STO609), “converted the stimulation-induced increase into a stimulation-elicited decrease in NET currents”.
On to “NET T30A: human NET with T30 mutated to alanine, HA-tagged”, for which the “Basal surface expression versus wildtype hNET” value in the test with human NET [2] (CHO cells, n=3) is on record as 117+/−18.5%. Moreover, the “Change of transporter surface density in response to Ca^2+ manipulations (addition or depletion)” value in the test with human NET [2] is recorded as “complete lack of Ca^2+ sensitivity”. In the test on human NET [5] (15 min Ca^2+ restoration including 10 min transport assay), the “Recovery of NE transport after Ca^2+ depletion” value is recorded as “failed to recover NE transport activity”. Also, in the test with human NET [5] (transiently transfected CHO cells), the “NE transport activity in KRH/Ca^2+” value is given as “equivalent to wild-type NET”. Further, the “Phosphorylation following Ca^2+ addition” value in the test with human NET [6] was “no phosphorylation”.

Source of the values: patent publication US20090156530A1, “Norepinepherine Transporter Mutants and Uses Thereof” (priority 2007, published 2009).
